Results published in US11578102B2, “LAG3 binding peptides” (Leidos, Inc., priority 2020, dated 2023).
Residues, ends and D or L forms follow the SMILES beside them.

Molecular target: T1, human LAG3/FGL1 interaction (Homo sapiens, UniProt P18627)
T1 construct: purchased BPS Bioscience
T1 sequence (P18627 23-450 limits assumed): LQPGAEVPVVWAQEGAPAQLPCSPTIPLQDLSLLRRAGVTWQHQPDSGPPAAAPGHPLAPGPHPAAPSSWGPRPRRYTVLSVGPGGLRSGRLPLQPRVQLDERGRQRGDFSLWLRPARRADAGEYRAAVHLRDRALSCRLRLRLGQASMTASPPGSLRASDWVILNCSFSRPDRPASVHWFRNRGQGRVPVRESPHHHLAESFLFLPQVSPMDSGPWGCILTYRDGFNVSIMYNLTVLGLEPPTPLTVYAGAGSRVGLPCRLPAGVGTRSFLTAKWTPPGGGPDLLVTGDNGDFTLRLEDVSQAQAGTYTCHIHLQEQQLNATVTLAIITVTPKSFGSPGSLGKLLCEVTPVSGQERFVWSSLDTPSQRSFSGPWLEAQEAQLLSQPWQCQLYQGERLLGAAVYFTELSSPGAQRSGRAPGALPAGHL
Test: Human LAG3/FGL1 TR-FRET Binding Assay (BPS Bioscience)
Details: peptides tested at 100, 33, and 11 μM; 1 hr at RT; read-out: IC50 in LAG3:FLG1 TR-FRET Assay
Method: This example tested the ability of peptides to inhibit the interaction between human LAG3 and FGL1. The peptides were tested using a Human LAG3/FGL1 TR-FRET Binding Assay (BPS Bioscience) carried out according to the manufacturer's instructions.
Peptides 6, 41, 68, 69, 115, 146, 154, and 155 were tested at 100, 33, and 11 μM. Peptide LG56 ([…]; SEQ ID NO:14) served as a peptide positive control. Peptide 93 (SEQ ID NO:15) served as a negative or low activating peptide control. A neutralizing anti-human LAG3 antibody (BPS Bioscience Cat. #71219) was used as an antibody positive control.
Reaction mixes were incubated 1 hr at RT before development. After development, plate was read in a Tecan M1000 TR-FRET instrument.

IC50 [µM]	SMILES
7.2	CC[C@H](C)[C@H](NC(=O)[C@H](CC(=O)O)NC(=O)[C@H](CC(=O)O)NC(=O)[C@H](C)NC(=O)[C@H](Cc1ccc(O)cc1)NC(=O)[C@H](CC(C)C)NC(=O)[C@H](CCCNC(=N)N)NC(=O)[C@@H](NC(=O)[C@H](CCC(=O)O)NC(=O)[C@H](CCCCN)NC(=O)[C@H](CCC(=O)O)NC(=O)[C@H](CC(=O)O)NC(=O)[C@H](Cc1c[nH]c2ccccc12)NC(=O)[C@H](CC(=O)O)NC(=O)[C@H](CCSC)NC(=O)[C@H](CCCNC(=N)N)NC(=O)[C@H](Cc1ccccc1)NC(=O)[C@@H](N)C(C)C)C(C)C)C(=O)N[C@@H](CC(C)C)C(=O)N[C@@H](CC(C)C)C(=O)O [Peptide 146] (H-VFRMDWDEKEVRLYADDILL-OH; N-terminus and C-terminus assumed)
7.2	CSCC[C@H](NC(=O)[C@@H](NC(=O)[C@H](CCC(=O)O)NC(=O)[C@H](CC(C)C)NC(=O)[C@@H](NC(=O)[C@H](CCC(N)=O)NC(=O)[C@H](CCC(=O)O)NC(=O)[C@H](CCCNC(=N)N)NC(=O)[C@H](CC(N)=O)NC(=O)[C@H](Cc1c[nH]cn1)NC(=O)[C@@H](N)CCC(=O)O)C(C)C)C(C)C)C(=O)N[C@@H](Cc1ccc(O)cc1)C(=O)N[C@@H](CO)C(=O)N[C@@H](Cc1ccccc1)C(=O)N[C@@H](CCC(N)=O)C(=O)N[C@H](C(=O)N[C@@H](CC(N)=O)C(=O)N[C@@H](CC(=O)O)C(=O)N[C@@H](Cc1ccc(O)cc1)C(=O)N[C@@H](Cc1ccccc1)C(=O)O)C(C)C [Peptide 154] (H-EHNREQVLEVMYSFQVNDYF-OH; N-terminus and C-terminus assumed)
> 100	CC[C@H](C)[C@H](NC(=O)[C@H](C)NC(=O)CNC(=O)[C@H](C)NC(=O)[C@H](CC(N)=O)NC(=O)[C@@H]1CCCN1C(=O)[C@H](Cc1ccc(O)cc1)NC(=O)[C@H](CCC(N)=O)NC(=O)[C@H](CCCCN)NC(=O)[C@H](CCC(N)=O)NC(=O)[C@@H](NC(=O)[C@H](CCC(N)=O)NC(=O)[C@H](CCC(=O)O)NC(=O)[C@H](CCCCN)NC(=O)[C@@H](NC(=O)[C@@H]1CCCN1C(=O)[C@H](C)NC(=O)[C@@H]1CCCN1C(=O)[C@@H](NC(=O)[C@@H](N)CCCNC(=N)N)C(C)C)C(C)C)C(C)C)C(=O)O [Low Activity Peptide, reference compound] (H-RVPAPVKEQVQKQYPNAGAI-OH; N-terminus and C-terminus assumed)
